The record followed here is patent US8648066B2 (Exelixis, Inc., priority 2009, dated 2014).

This assay addresses mTOR/GbL/Raptor (mTORC1) (Homo sapiens, UniProt P42345). As to the kind of experiment: mTOR/GbL/Raptor (mTORC1) ELISA assay. In kind it is biochemical. The note with it: phosphorylation of 4E-BP1; 0.2 nM mTORC1, 10 μM ATP; read-out: IC50 in this assay (mTORC1 ELISA). In a few lines: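 ELISA read-out: phospho-4E-BP1 captured on Ni-chelate plates and detected with anti-phospho antibody plus HRP-anti-IgG luminescence. The kinase step ran 120 min at ambient temperature with 0.2 nM human mTORC1, 10 µM ATP, 50 nM His-4E-BP1, 10 mM MnCl2, pH 7.2 HEPES.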
On the technique in general: ELISA stands for enzyme-linked immunosorbent assay.
One may read the IC50 as the midpoint of a concentration-inhibition curve. As to `CNC1CN(S(=O)(=O)c2cc(-c3ccc4c(c3)CN(c3ncnc5c3CC(C)(C)CC5)CCO4)cnc2N)C1` [Example 519, 5-[4-(6,6-dimethyl-5,6,7,8-tetrahydroquinazolin-4-yl)-2,3,4,5-tetrahydro-1,4-benzoxazepin-7-yl]-3-{[3-(methylamino)azetidin-1-yl]sulfonyl}pyridin-2-amine], the IC50 fell in the range of 0.01 to 0.05 µM.

With `CNc1ncc(-c2ccc3c(c2)CN(c2ncnc4c2CC(C)(C)CC4)CCO3)cc1S(=O)(=O)NCCO` [Example 520, 5-[4-(6,6-dimethyl-5,6,7,8-tetrahydroquinazolin-4-yl)-2,3,4,5-tetrahydro-1,4-benzoxazepin-7-yl]-N-(2-hydroxyethyl)-2-(methylamino)pyridine-3-sulfonamide], the IC50 is not above 0.01 µM.

Regarding `CN(C)S(=O)(=O)c1cncc(-c2ccc3c(c2)CN(c2ncnc4c2CC(C)(C)CC4)CCO3)c1` [Example 521, 5-[4-(6,6-dimethyl-5,6,7,8-tetrahydroquinazolin-4-yl)-2,3,4,5-tetrahydro-1,4-benzoxazepin-7-yl]-N,N-dimethylpyridine-3-sulfonamide], the IC50 lay within 0.25 to 1 µM.

`CC1(C)CCc2ncnc(N3CCOc4ccc(-c5cncc(S(N)(=O)=O)c5)cc4C3)c2C1` [Example 522, 5-[4-(6,6-dimethyl-5,6,7,8-tetrahydroquinazolin-4-yl)-2,3,4,5-tetrahydro-1,4-benzoxazepin-7-yl]pyridin-3-sulfonamide]: the IC50 lay in the range of 0.25 to 1 µM.

On to `CC1(C)CCc2ncnc(N3CCOc4ccc(-c5cnc(N)nc5)cc4C3)c2C1` [Example 523, 5-[4-(6,6-dimethyl-5,6,7,8-tetrahydroquinazolin-4-yl)-2,3,4,5-tetrahydro-1,4-benzoxazepin-7-yl]pyrimidin-2-amine], for which the IC50 is 0.05 to 0.25 µM.

On to `COc1ccc2c(N3CCOc4ccc(-c5ccc6c(c5)CC(=O)N6)cc4C3)nc(C)nc2c1` [Example 524, 5-{4-[2-methyl-7-(methyloxy)quinazolin-4-yl]-2,3,4,5-tetrahydro-1,4-benzoxazepin-7-yl}-1,3-dihydro-2H-indol-2-one], for which the concentration for half-maximal inhibition (IC50) was in the range of 1 to 2 µM.

For `Cc1nc2ncc(-c3ccc4c(c3)CN(c3ncnc(NC(C)C)c3C)CCO4)cc2[nH]1` [Example 525, 5-methyl-N-(1-methylethyl)-6-[7-(2-methyl-1H-imidazo[4,5-b]pyridin-6-yl)-2,3-dihydro-1,4-benzoxazepin-4(5H)-yl]pyrimidin-4-amine], the IC50 was 0.25 to 1 µM.

With `CN(C)Cc1nc2c(c(N3CCOc4ccc(-c5cnc6sc(N)nc6c5)cc4C3)n1)CC(C)(C)CC2` [Example 526, 6-(4-{2-[(dimethylamino)methyl]-6,6-dimethyl-5,6,7,8-tetrahydroquinazolin-4-yl}-2,3,4,5-tetrahydro-1,4-benzoxazepin-7-yl)[1,3]thiazolo[5,4-b]pyridin-2-amine], the IC50 fell in the range of 0.01 to 0.05 µM.

As for `COc1ccc2c(N3CCOc4ccc(-c5cnc6sc(N)nc6c5)cc4C3)nc(CN(C)C)nc2c1` [Example 527, 6-(4-{2-[(dimethylamino)methyl]-7-(methyloxy)quinazolin-4-yl}-2,3,4,5-tetrahydro-1,4-benzoxazepin-7-yl)[1,3]thiazolo[5,4-b]pyridin-2-amine], the IC50 lay within 0.25 to 1 µM.

Turning to `Cc1nc(Nc2ccccc2)c(C)c(N2CCOc3ccc(-c4ccc5nc[nH]c5c4)cc3C2)n1` [Example 529, 6-[7-(1H-benzimidazol-6-yl)-2,3-dihydro-1,4-benzoxazepin-4(5H)-yl]-2,5-dimethyl-N-phenylpyrimidin-4-amine], the IC50 is 0.25 to 1 µM.

In the case of `Cc1nc(Nc2ccccc2)c(C)c(N2CCOc3ccc(-c4cnc5nc[nH]c5c4)cc3C2)n1` [Example 530], the IC50 fell in the range of 0.01 to 0.05 µM.

Consider `Cc1c(NC2CCN(C)CC2)ncnc1N1CCOc2ccc(-c3cnc4nc(C5CC5)[nH]c4c3)cc2C1` [Example 531, 6-[7-(2-cyclopropyl-1H-imidazo[4,5-b]pyridin-6-yl)-2,3-dihydro-1,4-benzoxazepin-4(5H)-yl]-5-methyl-N-(1-methylpiperidin-4-yl)pyrimidin-4-amine], for which the IC50 lay in the range of 0.25 to 1 µM.

For the compound `Cc1c(NC2CCOCC2)ncnc1N1CCOc2ccc(-c3cnc4nc(C5CC5)[nH]c4c3)cc2C1` [Example 532, 6-[7-(2-cyclopropyl-1H-imidazo[4,5-b]pyridin-6-yl)-2,3-dihydro-1,4-benzoxazepin-4(5H)-yl]-5-methyl-N-(tetrahydro-2H-pyran-4-yl)pyrimidin-4-amine], the IC50 was in the range of 0.25 to 1 µM.

Turning to `Cc1c(NCC2CCN(C)CC2)ncnc1N1CCOc2ccc(-c3cnc4nc(C5CC5)[nH]c4c3)cc2C1` [Example 533, 6-[7-(2-cyclopropyl-1H-imidazo[4,5-b]pyridin-6-yl)-2,3-dihydro-1,4-benzoxazepin-4(5H)-yl]-5-methyl-N-[(1-methylpiperidin-4-yl)methyl]pyrimidin-4-amine], the IC50 is not below 2 µM.

With `Cc1c(NCCC2CCCN2C)ncnc1N1CCOc2ccc(-c3cnc4nc(C5CC5)[nH]c4c3)cc2C1` (stereo not drawn) [Example 534, 6-[7-(2-cyclopropyl-1H-imidazo[4,5-b]pyridin-6-yl)-2,3-dihydro-1,4-benzoxazepin-4(5H)-yl]-5-methyl-N-[2-(1-methylpyrrolidin-2-yl)ethyl]pyrimidin-4-amine], the IC50 fell in the range of 1 to 2 µM.

`Cc1c(N2CCOc3ccc(-c4cnc5nc(C6CC6)[nH]c5c4)cc3C2)ncnc1N(C)[C@@H](C)c1ccccc1` [Example 536, 6-[7-(2-cyclopropyl-1H-imidazo[4,5-b]pyridin-6-yl)-2,3-dihydro-1,4-benzoxazepin-4(5H)-yl]-N,5-dimethyl-N-[(1S)-1-phenylethyl]pyrimidin-4-amine]: the IC50 was in the range of 0.05 to 0.25 µM.

As for `CC[C@H]1CCc2c(ncnc2N2CCOc3ccc(-c4cnc5nc(N)[nH]c5c4)cc3C2)C1` [Example 537, 6-{4-[(7S)-7-ethyl-5,6,7,8-tetrahydroquinazolin-4-yl]-2,3,4,5-tetrahydro-1,4-benzoxazepin-7-yl}-1H-imidazo[4,5-b]pyridin-2-amine], the IC50 was not above 0.01 µM.

Regarding `CCNc1nc2ccc(-c3ccc4c(c3)CN(c3nc(C)nc(Nc5ccccc5)c3C)CCO4)cc2[nH]1` [Example 538, 6-{4-[2,5-dimethyl-6-(phenylamino)pyrimidin-4-yl]-2,3,4,5-tetrahydro-1,4-benzoxazepin-7-yl}-N--ethyl-1H-benzimidazol-2-amine], the IC50 is 0.05 to 0.25 µM.

For the compound `COc1ccc2c(N3CCOc4ccc(-c5ccc6nc(N)[nH]c6c5)cc4C3)nc(C)nc2c1` [Example 539, 6-{4-[2-methyl-7-(methyloxy)quinazolin-4-yl]-2,3,4,5-tetrahydro-1,4-benzoxazepin-7-yl}-1H-benzimidazol-2-amine], the IC50 is 0.05 to 0.25 µM.

Turning to `Cc1c(Nc2ccccc2)ncnc1N1CCOc2ccc(-c3cnc4nc(N)[nH]c4c3)cc2C1` [Example 540, 6-{4-[5-methyl-6-(phenylamino)pyrimidin-4-yl]-2,3,4,5-tetrahydro-1,4-benzoxazepin-7-yl}-1H-imidazo[4,5-b]pyridin-2-amine], the IC50 lay in the range of 0.01 to 0.05 µM.

Turning to `c1cc(N2CCOc3ccc(-c4ccc5nc[nH]c5c4)cc3C2)ncn1` [Example 541, 7-(1H-benzimidazol-6-yl)-4-pyrimidin-4-yl-2,3,4,5-tetrahydro-1,4-benzoxazepine], the IC50 is not below 2 µM.

As to `COc1ccc2c(N3CCOc4ccc(-c5cnc6nc[nH]c6c5)cc4C3)nc(C)nc2c1` [Example 542, 7-(1H-imidazo[4,5-b]pyridin-6-yl)-4-[2-methyl-7-(methyloxy)quinazolin-4-yl]-2,3,4,5-tetrahydro-1,4-benzoxazepine], the IC50 lay within 0.05 to 0.25 µM.

`c1cc(N2CCOc3ccc(-c4cnc5nc[nH]c5c4)cc3C2)ncn1` [Example 543, 7-(1H-imidazo[4,5-b]pyridin-6-yl)-4-pyrimidin-4-yl-2,3,4,5-tetrahydro-1,4-benzoxazepine]: the IC50 fell in the range of 1 to 2 µM.

As to `Cc1nc2c(c(N3CCOc4ccc(-c5cnc6nc(C7CC7)[nH]c6c5)cc4C3)n1)CC(C)(C)CC2` [Example 544, 7-(2-cyclopropyl-1H-imidazo[4,5-b]pyridin-6-yl)-4-(2,6,6-trimethyl-5,6,7,8-tetrahydroquinazolin-4-yl)-2,3,4,5-tetrahydro-1,4-benzoxazepine], the IC50 was not above 0.01 µM.

Turning to `CC1(C)C=Cc2ncnc(N3CCOc4ccc(-c5cnc6nc(C7CC7)[nH]c6c5)cc4C3)c2C1` [Example 545, 7-(2-cyclopropyl-1H-imidazo[4,5-b]pyridin-6-yl)-4-(6,6-dimethyl-5,6-dihydroquinazolin-4-yl)-2,3,4,5-tetrahydro-1,4-benzoxazepine], the IC50 is not above 0.01 µM.

On to `C[C@H]1CCc2c(ncnc2N2CCOc3ccc(-c4cnc5nc(C6CC6)[nH]c5c4)cc3C2)C1` [Example 546, 7-(2-cyclopropyl-1H-imidazo[4,5-b]pyridin-6-yl)-4-[(7S)-7-methyl-5,6,7,8-tetrahydroquinazolin-4-yl]-2,3,4,5-tetrahydro-1,4-benzoxazepine], for which the IC50 lay in the range of 0.05 to 0.25 µM.

For the compound `Cc1nc(C)c(CC2CC2)c(N2CCOc3ccc(-c4cnc5nc(C6CC6)[nH]c5c4)cc3C2)n1` [Example 547, 7-(2-cyclopropyl-1H-imidazo[4,5-b]pyridin-6-yl)-4-[5-(cyclopropylmethyl)-2,6-dimethylpyrimidin-4-yl]-2,3,4,5-tetrahydro-1,4-benzoxazepine], the IC50 lay within 0.01 to 0.05 µM.

For the compound `CCc1nc2ncc(-c3ccc4c(c3)CN(c3nc(C)nc5c3CC(C)(C)CC5)CCO4)cc2[nH]1` [Example 548, 7-(2-ethyl-1H-imidazo[4,5-b]pyridin-6-yl)-4-(2,6,6-trimethyl-5,6,7,8-tetrahydroquinazolin-4-yl)-2,3,4,5-tetrahydro-1,4-benzoxazepine], the IC50 is not above 0.01 µM.

Take `Cc1nc2c(c(N3CCOc4ccc(-c5cnc6nc(C)[nH]c6c5)cc4C3)n1)CC(C)(C)CC2` [Example 550, 7-(2-methyl-1H-imidazo[4,5-b]pyridin-6-yl)-4-(2,6,6-trimethyl-5,6,7,8-tetrahydroquinazolin-4-yl)-2,3,4,5-tetrahydro-1,4-benzoxazepine]: the IC50 was not above 0.01 µM.

As for `Cc1nc2ncc(-c3ccc4c(c3)CN(c3ncnc(N5CCOCC5)c3C)CCO4)cc2[nH]1` [Example 551], the IC50 was 0.25 to 1 µM.
